{
  "source": "paper PMC5733478",
  "about": "“A Non-imaging High Throughput Approach to Chemical Library Screening at the Unmodified Adenosine-A3 Receptor in Living Cells” (Frontiers in Pharmacology, 2017)",
  "note": "Where a name gives a salt, the structure may show the parent alone.",
  "data": [
    {"biological_target": "T1, human A3AR (Homo sapiens, UniProt P0DMS8)", "T1 construct": "expressed in transfected cells", "T1 sequence (P0DMS8 1-318)": "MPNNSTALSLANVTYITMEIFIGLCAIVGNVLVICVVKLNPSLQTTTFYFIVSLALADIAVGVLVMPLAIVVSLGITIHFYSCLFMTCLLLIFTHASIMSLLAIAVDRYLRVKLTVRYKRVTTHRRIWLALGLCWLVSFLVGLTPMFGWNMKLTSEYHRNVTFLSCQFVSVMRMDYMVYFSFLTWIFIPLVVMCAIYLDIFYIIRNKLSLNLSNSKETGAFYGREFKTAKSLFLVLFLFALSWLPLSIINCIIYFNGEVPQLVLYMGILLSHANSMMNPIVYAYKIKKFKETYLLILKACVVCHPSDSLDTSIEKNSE", "assay": "LOPAC library primary screen: single concentration (10 μM) inhibition of 25 nM CA200645 binding, PHERAstar FS", "details": "not given", "units": {"% 25 nM CA200645 binding": "%"}, "values": [
      {"smiles": "C[N+]1(C)CCc2cc3c(cc2[C@H]1[C@@H]1OC(=O)c2c1ccc1c2OCO1)OCO3.[Br-]", "note": "[(-)-Bicuculline methbromide, 1(S), 9(R)]", "% 25 nM CA200645 binding": "67.4 ± 5.9"},
      {"smiles": "O=C(O)[C@H]1CCCN[C@H]1C(=O)O", "note": "(racemic) [(±)-cis-Piperidine-2,3-dicarboxylic acid]", "% 25 nM CA200645 binding": "99.4 ± 1.9"},
      {"smiles": "CC1=C(/C=C/C(C)=C/C=C/C(C)=C/C=C/C=C(C)/C=C/C=C(C)/C=C/C2=C(C)C(=O)[C@@H](O)CC2(C)C)C(C)(C)C[C@H](O)C1=O", "note": "[Astaxanthin]", "% 25 nM CA200645 binding": "96.8 ± 4.6"},
      {"smiles": "O=Nc1ccc2oc(=O)ccc2c1", "note": "[6-Nitroso-1,2-benzopyrone]", "% 25 nM CA200645 binding": "107.9 ± 12.7"},
      {"smiles": "CN(C)CCCN1c2ccccc2Sc2ccccc21", "note": "[Promazine hydrochloride]", "% 25 nM CA200645 binding": "80.6 ± 8.4"},
      {"smiles": "Cc1ccc(S(=O)(=O)NC(=O)NN2CCCCCC2)cc1", "note": "[Tolazamide]", "% 25 nM CA200645 binding": "109.2 ± 9.0"},
      {"smiles": "NCCc1c[nH]cn1", "note": "[Histamine dihydrochloride]", "% 25 nM CA200645 binding": "102.0 ± 10.2"},
      {"smiles": "N=C(N)c1ccccc1", "note": "[Benzamidine hydrochloride]", "% 25 nM CA200645 binding": "90.8 ± 8.3"},
      {"smiles": "Cl.NC1(C(=O)O)CCCCC1", "% 25 nM CA200645 binding": "108.3 ± 1.1"},
      {"smiles": "Cc1ncsc1CCCl.Cl", "note": "[Chlormethiazole hydrochloride]", "% 25 nM CA200645 binding": "84.7 ± 21.7"},
      {"smiles": "NNc1nncc2ccccc12", "note": "[Hydralazine hydrochloride]", "% 25 nM CA200645 binding": "100.6 ± 8.6"},
      {"smiles": "N[C@@H](CS(=O)O)C(=O)O", "note": "[L-Cysteinesulfinic Acid]", "% 25 nM CA200645 binding": "83.6 ± 21.3"},
      {"smiles": "Nc1nc(Cl)nc2c1ncn2[C@@H]1O[C@H](COP(=O)(O)OP(=O)(O)OP(=O)(O)O)C(O)C1O", "note": "(stereo in doubt)", "% 25 nM CA200645 binding": "89.5 ± 23.0"},
      {"smiles": "C=CC[C@H](N)C(=O)O", "note": "[L-allylglycine]", "% 25 nM CA200645 binding": "98.5 ± 1.7"},
      {"smiles": "CC(C)(C(=O)O)c1ccc(C(O)CCCN2CCC(C(O)(c3ccccc3)c3ccccc3)CC2)cc1", "note": "(stereo not drawn) [Fexofenadine hydrochloride]", "% 25 nM CA200645 binding": "93.9 ± 3.6"},
      {"smiles": "Cc1cc2c(C(C)C)c(O)c(O)c(C=O)c2c(O)c1-c1c(C)cc2c(C(C)C)c(O)c(O)c(C=O)c2c1O", "note": "[Gossypol]", "% 25 nM CA200645 binding": "54.1 ± 12.3"},
      {"smiles": "O=C(O)c1cc([N+](=O)[O-])ccc1NCCCc1ccccc1", "% 25 nM CA200645 binding": "120.8 ± 13.5"},
      {"smiles": "Oc1cc(O)cc(/C=C/c2ccc(O)c(O)c2)c1", "note": "[Piceatannol]", "% 25 nM CA200645 binding": "79.1 ± 22.1"},
      {"smiles": "CCN1CCC[C@H]1CNC(=O)c1c(O)c(Cl)cc(Cl)c1OC.O=C(O)C(O)C(O)C(=O)O", "note": "(racemic) [S(+)-Raclopride L-tartrate]", "% 25 nM CA200645 binding": "98.6 ± 4.9"},
      {"smiles": "CCCCC1(C2CCCC2)Cc2cc(OCC(=O)O)c(Cl)c(Cl)c2C1=O", "note": "(stereo in doubt) [R(+)-Butylindazone]", "% 25 nM CA200645 binding": "91.2 ± 11.8"},
      {"smiles": "CC(NC(C)(C)C)C(=O)c1cccc(Cl)c1", "note": "(stereo not drawn) [Bupropion hydrochloride]", "% 25 nM CA200645 binding": "98.9 ± 4.9"},
      {"smiles": "OC[C@H]1O[C@@H](n2cnc3c(NC4CCCCC4)ncnc32)[C@H](O)[C@@H]1O", "note": "[N6-Cyclohexyladenosine]", "% 25 nM CA200645 binding": "92.9 ± 12.9"},
      {"smiles": "O=C(O)/C=C\\C(=O)O.O=[N+]([O-])c1ccc2nc(N3CCNCC3)ccc2c1", "note": "[Quipazine, 6-nitro-, maleate]", "% 25 nM CA200645 binding": "100.0 ± 4.7"},
      {"smiles": "Nc1nc(OCC2CCCCC2)c2[nH]cnc2n1", "note": "[NU2058]", "% 25 nM CA200645 binding": "53.9 ± 7.1"},
      {"smiles": "CN(C)C(=O)Oc1ccc[n+](C)c1", "note": "[Pyridostigmine bromide]", "% 25 nM CA200645 binding": "92.0 ± 6.7"},
      {"smiles": "CCN(CC)CCCCCCCCOC(=O)c1cc(OC)c(OC)c(OC)c1.Cl", "note": "[TMB-8 hydrochloride]", "% 25 nM CA200645 binding": "95.0 ± 0.4"},
      {"smiles": "Clc1ccc(C(c2ccccc2Cl)C(Cl)Cl)cc1", "note": "(stereo not drawn)", "% 25 nM CA200645 binding": "87.8 ± 23.1"},
      {"smiles": "Cl.Fc1ccc(CN(C2=NCCN2)c2c(Cl)cccc2Cl)cc1", "note": "[IMID-4F hydrochloride]", "% 25 nM CA200645 binding": "97.3 ± 5.7"},
      {"smiles": "NC(=O)c1ncn([C@@H]2O[C@H](CO)[C@@H](O)[C@H]2O)n1", "note": "[Ribavirin]", "% 25 nM CA200645 binding": "103.3 ± 14.0"}
    ]},
    {"biological_target": "T1, human A3AR", "assay": "LOPAC library primary screen: single concentration (10 μM) inhibition of 25 nM CA200645 binding, PHERAstar FS", "details": "compounds tested at 10 µM; % of control wells (1% DMSO and 25 nM CA200645); whole live cells expressing the A3AR; mean ± SD, three experiments in duplicate", "units": {"% 25 nM CA200645 binding": "%"}, "values": [
      {"smiles": "CCC(=O)c1ccc2c(c1)N(CCCN(C)C)c1ccccc1S2", "note": "[Propionylpromazine hydrochloride]", "% 25 nM CA200645 binding": "101.0 ± 0.8"}
    ]}
  ]
}
